Results on one compound are retold here after publication PMC10826971, “Evaluating protein cross-linking as a therapeutic strategy to stabilize SOD1 variants in a mouse model of familial ALS” (PLOS Biology, 2024).

“Also recorded” adds a separate entry of the source.

A short description of one series: in vivo. To be noted: C57BL/6, mouse. The method, then: (§1) Any clinical abnormalities including but not limited to ruffled fur, unstable gait, severe lethargy, and mortality was observed after dosing. The post-dose washout period was maintained for 48 h for both PO, IV, and SC route of administration.
The next series has as its system C57BL/6 mice. The series can be described thus: in vivo. To be noted: mouse. The method, then: as §1
In series [1] the test system is alpha 1-acid glycoprotein. The format is in vitro ADME.
The target in a further series is human serum albumin (Homo sapiens, UniProt P02768). The format is in vitro ADME.
Sequence of human serum albumin (P02768 25-609): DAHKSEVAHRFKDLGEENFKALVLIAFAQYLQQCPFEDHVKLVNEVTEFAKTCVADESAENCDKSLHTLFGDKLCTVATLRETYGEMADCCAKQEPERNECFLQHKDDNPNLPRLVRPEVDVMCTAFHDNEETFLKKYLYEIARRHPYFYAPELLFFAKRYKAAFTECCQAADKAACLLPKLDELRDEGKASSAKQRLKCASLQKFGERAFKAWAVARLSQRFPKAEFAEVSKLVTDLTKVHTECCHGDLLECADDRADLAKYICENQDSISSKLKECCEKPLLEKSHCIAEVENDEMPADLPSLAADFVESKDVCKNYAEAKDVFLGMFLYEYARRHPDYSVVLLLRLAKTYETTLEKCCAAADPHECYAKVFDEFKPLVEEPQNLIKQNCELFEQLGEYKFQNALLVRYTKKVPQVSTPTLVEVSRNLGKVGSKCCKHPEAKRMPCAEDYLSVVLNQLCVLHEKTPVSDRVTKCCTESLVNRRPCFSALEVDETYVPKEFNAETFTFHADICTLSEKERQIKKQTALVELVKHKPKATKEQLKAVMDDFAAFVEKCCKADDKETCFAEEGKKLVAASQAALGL
The next series deals with SOD1 (Homo sapiens, UniProt P00441). It counts as binding. The method, then: A computational search was performed in PubChem to identify all compounds containing a cyclic disulfide motif. […] Of these, 69 compounds cross-linked SOD1 with a wide array of reaction rates. Only 2 compounds could cross-link 100% of SOD1 during the assay, including one 5-membered cyclic disulfide (4-Amino-1,2-Dithiolane-4-Carboxylic Acid) and one 6-membered cyclic thiosulfinate (1,2-dithiane 1-oxide).
Sequence of SOD1 (P00441 2-154 limits assumed): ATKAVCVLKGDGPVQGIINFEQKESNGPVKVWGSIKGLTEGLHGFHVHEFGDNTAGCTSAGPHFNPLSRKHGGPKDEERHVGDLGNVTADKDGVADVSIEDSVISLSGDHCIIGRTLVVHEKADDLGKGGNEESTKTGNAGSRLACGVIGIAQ

In series [2] the test system is wild-type SOD1, SOD1^A4V, SOD1^G93A, SOD1^H46R, and SOD1^G85R. Description: Mass spectrometry assay for intact protein cross-linking in vitro. It counts as binding, human. The method, then: We employed a mass spectrometry (MS) assay for intact protein cross-linking. In this assay, any non-covalent (i.e., native) dimer is dissociated by a combination of acidic, organic media and MS source conditions.
Wild-type SOD1, SOD1^A4V, SOD1^G93A, SOD1^H46R, and SOD1^G85R stock solutions were diluted to 40 μm in 10 mM ammonium acetate (pH 7.4). […] Prior to infusion, samples were diluted to 1 μm in 50:50 acetonitrile:water, with 0.1% formic acid. During analysis, 32 scans were acquired in positive mode and averaged. Funnel 1 and skimmer 1 were kept around 150 V and 20 V, respectively, and funnel RF amplitude was held at 60.0 Vpp.

Series [3] relates to SOD1 variants. Description: Plate-based and gel-based SOD1 enzymatic activity assays (results in words). The format is biochemical, human. The method, then:
(§2) Enzymatic activity of SOD1 variants were assessed using a gel-based assay with riboflavin and nitroblue tetrazolium (NBT) as previously described. […] The samples were mixed with native sample buffer (Bio-Rad) in a 1:1 ratio and were loaded into each well to a 12% polyacrylamide gel (Bio-Rad). The gel was stained in dark using 50 mM potassium phosphate (pH 7.8), 0.13 mg/mL of NBT, and 0.1 mg/mL of riboflavin for 45 min. The gel was exposed to light for with 1 μL/mL of N,N,N^′,N^′-tetramethylethylenediamine (TEMED) for 2 min. SOD1 activity can be seen as colorless bands as the SOD1 scavenges the superoxide that inhibits insoluble blue color formazan formation.
(§3) All samples were prepared as described in gel-based enzymatic activity assay section and were (10 μL) mixed with 160 μL of solution A (6,000 units/mL catalase, 10 mM hypoxanthine, and 5 mM XTT) and 160 μL of solution B (xanthine oxidase 16 mg/mL) in a flat-bottom 96-well plate and was monitored for absorbance at 490 nm for 30 min. All samples were analyzed in technical triplicate using slope function in Microsoft Excel.

Series [4] has as its target T1, SOD1 variants (Homo sapiens, UniProt P00441, H47R).
T1 construct: made in house; host or cells: EGy118ΔSOD1 yeast, YEp351 expression vector
Described as above. The format is biochemical. To be noted: plate-based and gel-based assays. The method, then:
as §2, §3

A further series deals with wild-type SOD1 (Homo sapiens, UniProt P00441). The series can be described thus: SOD1 cross-linking in Hep G2 cells, SDS-PAGE and western blot. The format is cell-based. To be noted: Hep G2 cells in PBS buffer, 30 min. The method, then: The Hep G2 human hepatocarcinoma cell line (American Type Culture Collection, ATCC, Manassas, Virginia, USA) was cultured using complete EMEM (Eagle’s minimal essential medium, ATCC) media including 10% FBS (fetal bovine serum, ATCC) and 1% penicillin streptomycin (10,000 units/mL penicillin and 10,000 μg/mL streptomycin, Fisher Scientific, Hampton, New Hampshire, USA). Cells were counted and checked for morphology using an inverted Carl Zeiss microscope (Carl Zeiss Microscopy LLC, White Plains, New York, USA). A 96-well plate (Corning Life Sciences, Tewksbury, Massachusetts, USA) was used for culturing cells at 0.2 mill/mL concentration for 24 h at 37°C, 5% CO2 under controlled humidity for western blot experiment. […] Wild-type SOD1 purified from human erythrocyte (Sigma Aldrich, St. Louis, Missouri, USA) was used as positive control (standard) in the experiment. The growth buffer was aspirated and replaced with 30 μL of lysis buffer (150 mM NaCl, 1% Triton X-100, 0.5% sodium deoxycholate, 0.1% SDS, and 50 mM Tris (pH 8.0), all chemicals were purchased from Sigma Aldrich (St. Louis, Missouri, USA)) and incubated for 10 min followed by addition of non-reducing sample buffer. […]
Sequence of wild-type SOD1 (P00441 2-154 limits assumed): as above

The nature of series [5]: Blood-brain barrier penetration. The format is in vivo, mouse.
In the next series the test system is fALS SOD1 variants. The series can be described thus: Size exclusion chromatography (SEC) under native conditions. Further details: species or system human. On the procedure:
We have analyzed samples with and without cross-linker via SEC with high performance liquid chromatography (SEC-HPLC) to assess the SOD1 protein composition in its native state. […] For inducing aggregation, all samples (final conc. 1 μm) were incubated at 37°C for 1 h prior the SEC analysis. […] An isocratic mobile phase consisting of 100 mM sodium phosphate, 200 mM sodium chloride (pH 7.4) was used for 6 min to analyze each sample at wavelength of 280 nm. Waters BEH 200 standard was injected at the beginning, middle, and at the end to confirm the retention time was not shifting throughout the entire experiment.

T1 sequence (P00441 2-154 H47R): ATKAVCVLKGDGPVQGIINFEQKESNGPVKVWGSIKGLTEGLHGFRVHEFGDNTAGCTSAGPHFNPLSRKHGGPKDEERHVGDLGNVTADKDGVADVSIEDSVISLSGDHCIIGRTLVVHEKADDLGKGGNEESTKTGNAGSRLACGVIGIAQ

With `[O-][S+]1CCCCS1` (centres unmarked) [S-XL6, 1,2-dithiane-1-oxide], the LD50 at 48 h in “in vivo” (iv) was determined as 75 mg/kg; in the series “in vivo” (po) it was 1000 mg/kg; in “in vivo” (sc), 275 mg/kg. Moreover, the “mortality in up-down study” value was “One mouse died” in the series with C57BL/6 mice (iv, 55 mg/kg); “another mouse died” in the series on C57BL/6 mice (iv, 60 mg/kg); “one mouse died” in the series with C57BL/6 mice (sc, 60 mg/kg). Besides, the “binding to purified protein” value (in [1]; at human serum albumin) was “not bound” each time. Moreover, the “SOD1 cross-linked during the assay” value at SOD1 worked out at 100%. In addition, the “dead-end modifications of SOD1” value in series [2] is “not observed”. Besides, the “conversion of SOD1 monomer to cross-linked dimer” value in series [2] (denaturing MS conditions) is given as “full conversion of monomer to dimer”. Besides, the Enzymatic activity result in the series on SOD1 variants [3] (cross-linked fALS SOD1 variants, summary table) is given as “Activity of cross-linked quaternary structures of fALS SOD1 variants are more comparable to uncross-linked wild-type SOD1”. The “enzymatic activity of SOD1^A4V, SOD1^G93A and SOD1^G85R after cross-linking” value in the series with SOD1 variants [3] (plate-based and gel-based assays) was “levels comparable to that of wild-type SOD1; also recorded: increased to that of wild-type SOD1”. Further, the “enzymatic activity of SOD1^H46R after cross-linking” value on SOD1 variants [4] is reported as “No change in activity; also recorded: did not affect”. Also, on wild-type SOD1, the EC50 is roughly 5 µM. The “blood–brain barrier crossing” value in series [5] (fALS mouse model) is “crosses the blood–brain barrier”. Besides, the log BB at 1 h in series [5] (transgenic SOD1^G93A, mouse, brain/blood, subcutaneous, 30 mg/kg) worked out at 0.02. In [5] (transgenic SOD1^G93A, mouse, brain/blood, subcutaneous, 30 mg/kg, read-out: % BBB penetration), the Kp at 1 h is 0.0002. Also, the “monomeric population of fALS variants after S-XL6 treatment” value in the series on fALS SOD1 variants is given as “decreased”. For the same compound, the “large (>1,000 kDa) aggregates after S-XL6 treatment” value in the series with fALS SOD1 variants (all fALS variants tested) is listed as “diminished”.
